Experimental data: EP1344834A2, “Methods for the toxicity prediction of a compound” (F. HOFFMANN-LA ROCHE AG, priority 2002, dated 2003)
Like-named read-outs stand apart in the source and are kept apart here.

Experiments:
[1] = test system: expression profile in liver; experiment: Support Vector Machine classification of liver expression profiles; conditions: compounds not present in the initial training set; expression profiles of individual animals; Figures 8 and 9
Procedure: Adult male Wistar rats were dosed in vivo and the resulting expression profile in liver was determined. SVMs were built for the discrimination between 3 different classes of hepatotoxicants, non-toxic substances and controls. The training set consisted of 180 gene expression profiles from individual animals treated with direct acting, cholestatic, steatotic, non-toxic compounds and corresponding vehicle-dosed controls. As a first step the chips were rescaled to a median value of 0 and a standard deviation of 1. […] Multi-class classification for a given test chip was then carried out by combining the outputs of all binary. classifiers. A leave-one-out cross validation procedure was applied to assess the quality of the trained machines with respect to the training data. […] By removing all replicates of one compound from the training data, followed by classifying these chips with the resulting decision function, the individual contribution of the given compound for a successful classifier could be examined. RFE was used to investigate the relationship between the number of genes for generating the classifiers, the resulting prediction accuracy, cross-validation errors and the number of used support vectors. The first iteration reduced the gene count to a multiple of 2. In each subsequent iteration the gene count was halved until 32 genes remained. […]

[2] = test system: Gadd153; experiment: Quantitative RT-PCR of GADD-family genes in liver after in vivo dosing; design: species or system Wistar rats; conditions: control = 1.0
Procedure: (§1) The quality of RNA was assessed with gel electrophoresis.
(§2) The induction of these genes correlates with the histopathological findings in a time related fashion: While PEG-3 seems to be an early marker, GADD-45 and […] appear regulated at later time points, when the tissue damage is obvious by conventional endpoints.

[3] = test system: Gadd45; experiment: as above; design: species or system Wistar rats; conditions: control = 1.0
Procedure: as §1, §2

[4] = test system: PEG3; experiment: as above; design: species or system Wistar rats; conditions: control = 1.0
Procedure: as §1, §2

[5] = test system: genes from the GADD family; experiment: RT-PCR confirmation of induction of GADD family genes by direct acting compounds; format: in vivo, Wistar rats; conditions: rat liver (summary of Table 9)
Procedure: as §1, §2

[6] = test system: EGR1; experiment: Gene expression analysis (GeneChip) of EGR1 after exposure of rats; format: in vivo; conditions: high inter-individual variability
Procedure: as §1
(§3) Tolcapone (Tasmar) is a human hepatotoxin with no known toxicity in the rat.

[7] = test system: EGR-1; experiment: Quantitative RT-PCR of EGR-1 in liver after in vivo dosing; design: species or system rats; conditions: every 12 Hours, sacrificed 3 hours after the last administration, control = 1.0
Procedure: as §1, §3

[8] = test system: marker genes; conditions: rat, in vivo
Procedure: (§4) Male Wistar rats (generally 5 animals/dose-group) were purchased from BRL (Fullingsdorf, Switzerland) and housed individually. Treated animals were dosed either orally, intraperitoneally, or intravenously with several doses of test compounds (Table 1). The test compounds were categorized according to their toxic manifestation in the rat liver. Control animals received the same volume of vehicle as placebo. Necropsy was performed 6 or 24 hours after a single administration and liver samples from the left medial lobe were placed immediately in RNALater (Ambion, TX, USA) for RNA extraction and gene expression analysis. Samples in RNALater were stored at -20°C until further processing.
(§5) RNA isolation from hepatocytes was typically performed by resuspending approximately 3 Mio. Cells/1.2 mL RNAzol (Tel-Test Inc., TX, USA). […] Total RNA was isolated according to the manufacturer's instruction and quantified by measuring the optical density at 280 nm. The quality of RNA was assessed with gel electrophoresis.
(§6) The regulation of the mRNA levels of several candidate genes (Table 4) was verified with quantitative RT-PCR. […] For each performed RT-PCR reaction, the specificity of the assay was evaluated with dissociation curve software (Applied Biosystems), as well as by assessment of the size of the product using either gel electrophoresis or Agilent Bioanalyzer. […]

[9] = test system: AH-R; conditions: rat, in vivo
Procedure: as §4, §5, §6

[10] = test system: PC3 (BTG2); conditions: rat, in vivo
Procedure: as §4
(§7) RNA isolation from hepatocytes was typically performed by resuspending approximately 3 Mio. Cells/1.2 mL RNAzol (Tel-Test Inc., TX, USA). […] Total RNA was isolated according to the manufacturer's instruction and quantified by measuring the optical density at 280 nm. The quality of RNA was assessed with gel electrophoresis. […]
(§8) After hybridization and scanning, the expression level of each gene was calculated by subtracting the fluorescence intensity of the mismatch probes from the match signal (=average difference) using the [sequence] […] Gene expression data were further analyzed with an in-house-developed data analysis tool (RACE-A, Hoffmann-La Roche, Basel, Switzerland). […]

[11] = test system: AH-R; conditions: rat, in vivo; remark: listed apart in the source
Procedure: as §4, §7, §8

[12] = test system: CYP2B2; conditions: rat, in vivo
Procedure: as §4, §7, §8

[13] = test system: CYP2B2; conditions: rat, in vivo; remark: listed apart in the source
Procedure: as §4, §5, §6

[14] = test system: CYP2B; experiment: Western-blot of liver extracts with antibody specific for CYP2B; format: in vivo, rat
Procedure: In addition, Western blots were performed using specific antibodies against the cytochrome P450 CYP2B family in order to evaluate if the clear induction of messenger RNA also led to an increase in the hepatic protein levels. […] This is due to the time lag between protein and mRNA induction (Fig. 11).

[15] = test system: marker genes; experiment: RT-PCR of marker genes, differentiation of toxic and non-toxic 5-HT6 receptor antagonists (Fig. 10); conditions: rat liver, some of the selected genes
Procedure: as §4, §5, §6

[16] = 4500 mmol/kg, sampling time 2 hours
[17] = 4500 mmol/kg, sampling time 6 hours
[18] = 4500 mmol/kg, sampling time 24 hours
[19] = 10 mg/kg, sampling time 2 hours
[20] = 10 mg/kg, sampling time 6 hours
[21] = 10 mg/kg, sampling time 24 hours
[22] = 60 mg/kg, sampling time 2 hours
[23] = 60 mg/kg, sampling time 6 hours
[24] = 60 mg/kg, sampling time 24 hours
[25] = 2 mg/kg, sampling time 24 hours
[26] = 50 mg/kg, sampling time 6 hours

Clc1ccccc1Cl [1,2-dichlorobenzene]
classification by support vector machines (identification of compound class) [1]: direct acting compound | PCR Gadd153 ([2]; sampling time 2 hours): 0.9 fold induction | PCR Gadd153 ([2]; sampling time 6 hours): 0.6 fold induction | PCR Gadd153 ([2]; sampling time 24 hours): 27.9 fold induction | PCR Gadd45 [3, 16]: 2.3 fold induction | PCR Gadd45 [3, 17]: 4.9 fold induction | PCR Gadd45 [3, 18]: 53.0 fold induction | PCR PEG3 ([4]; sampling time 2 hours): 3.9 fold induction | PCR PEG3 ([4]; sampling time 6 hours): 1.9 fold induction | PCR PEG3 ([4]; sampling time 24 hours): 54.6 fold induction | induction of genes from the GADD family, namely GADD-45, GADD-153 and PEG-3 [5]: induction

Clc1ccc(Cl)cc1 [1,4-dichlorobenzene]
PCR Gadd153 ([2]; sampling time 2 hours): 1.0 fold induction | PCR Gadd153 ([2]; sampling time 6 hours): 0.9 fold induction | PCR Gadd153 ([2]; sampling time 24 hours): 2.4 fold induction | PCR Gadd45 [3, 16]: 1.7 fold induction | PCR Gadd45 [3, 17]: 0.8 fold induction | PCR Gadd45 [3, 18]: 7.2 fold induction | PCR PEG3 ([4]; sampling time 2 hours): 0.8 fold induction | PCR PEG3 ([4]; sampling time 6 hours): 0.7 fold induction | PCR PEG3 ([4]; sampling time 24 hours): 4.2 fold induction

O=[N+]([O-])c1ccc(O)c([N+](=O)[O-])c1 [Dinitrophenol]
induction of EGR1 ([6]; 10 and 30 mg/kg): slight induction | PCR EGR-1 ([7]; 10 mg/kg administered three times): 3.4 fold induction | PCR EGR-1 ([7]; 30 mg/kg administered three times): 8.5 fold induction

CCN(CC)C(=O)/C(C#N)=C/c1cc(O)c(O)c([N+](=O)[O-])c1 [Entacapone]
PCR EGR-1 ([7]; 600 mg/kg administered three times): 1.0 fold induction

NN [Hydrazine]
PCR Gadd153 [2, 19]: 2.2 fold induction | PCR Gadd153 [2, 20]: 4.0 fold induction | PCR Gadd153 [2, 21]: 0.4 fold induction | PCR Gadd153 [2, 22]: 1.0 fold induction | PCR Gadd153 [2, 23]: 0.9 fold induction | PCR Gadd153 [2, 24]: 1.7 fold induction | PCR Gadd45 [3, 19]: 1.1 fold induction | PCR Gadd45 [3, 20]: 9.9 fold induction | PCR Gadd45 [3, 21]: 0.2 fold induction | PCR Gadd45 [3, 22]: 1.0 fold induction | PCR Gadd45 [3, 23]: 1.8 fold induction | PCR Gadd45 [3, 24]: 1.0 fold induction | PCR PEG3 [4, 19]: 3.4 fold induction | PCR PEG3 [4, 20]: 6.3 fold induction | PCR PEG3 [4, 21]: 2.1 fold induction | PCR PEG3 [4, 22]: 20.4 fold induction | PCR PEG3 [4, 23]: 3.8 fold induction | PCR PEG3 [4, 24]: 11.9 fold induction | induction of genes from the GADD family, namely GADD-45, GADD-153 and PEG-3 [5]: induction

Nc1ccc(S(=O)(=O)c2cc(Br)nc(N3CCCC3)c2)cc1 [Ro66-0074, 4-(2-Bromo-6-pyrrolidin-1-yl-pyridine-4-sulfonyl)-phenylamine]
expression levels of few marker genes (RT-PCR, Fig. 10) [8]: slight induction | AH-R RT-PCR ([9]; 360 min): 1.7 | AH-R RT-PCR ([9]; 1440 min): 1.2 | PC3 (BTG2) Affymetrix ([10]; 360 min): 0.4 | PC3 (BTG2) Affymetrix ([10]; 1440 min): 0.6 | AH-R Affymetrix ([11]; 360 min): 1.0 | AH-R Affymetrix ([11]; 1440 min): 1.0 | CYP2B2 Affymetrix ([12]; 360 min): -1.2 | CYP2B2 Affymetrix ([12]; 1440 min): 1.1 | CYP2B2 RT-PCR ([13]; 360 min): 8.4 | CYP2B2 RT-PCR ([13]; 1440 min): 1.3

CC(=N)S [Thioacetamide]
PCR Gadd153 ([2]; 2 mg/kg, sampling time 6 hours): 0.9 fold induction | PCR Gadd153 [2, 25]: 0.0 fold induction | PCR Gadd153 [2, 20]: 1.3 fold induction | PCR Gadd153 [2, 21]: 0.9 fold induction | PCR Gadd153 [2, 26]: 2.5 fold induction | PCR Gadd45 ([3]; 2 mg/kg, sampling time 6 hours): 8.1 fold induction | PCR Gadd45 [3, 25]: 0.0 fold induction | PCR Gadd45 [3, 20]: 2.9 fold induction | PCR Gadd45 [3, 21]: 1.7 fold induction | PCR Gadd45 [3, 26]: 27.6 fold induction | PCR PEG3 ([4]; 2 mg/kg, sampling time 6 hours): 2.0 fold induction | PCR PEG3 [4, 25]: 0.9 fold induction | PCR PEG3 [4, 20]: 1.9 fold induction | PCR PEG3 [4, 21]: 0.5 fold induction | PCR PEG3 [4, 26]: 7.8 fold induction | induction of genes from the GADD family, namely GADD-45, GADD-153 and PEG-3 [5]: induction

Cc1ccc(C(=O)c2cc(O)c(O)c([N+](=O)[O-])c2)cc1 [Tolcapone (Tasmar), Tolcapone]
induction of EGR1 ([6]; high dose 300 mg/kg): slight induction | PCR EGR-1 ([7]; 300 mg/kg administered three times): 17.6 fold induction

O=C(O)CCCCCCNC1c2ccccc2CCc2ccccc21 [amineptine]
classification by support vector machines (identification of compound class) [1]: steatotic compound

(4-Amino-N-(6-bromo-1 H -indol-4-yl)-benzenesulfonamide [Ro65-7199]
induction of CYP2B (hepatic protein levels, Western blot) ([14]; 6 hours after administration): could not be detected | protein levels of CYP2B (Western blot) ([14]; 24 hours and 7 days after treatment): closely paralleled the amounts of mRNA | expression levels of few marker genes (RT-PCR, Fig. 10) [15]: larger effect
